In PMC8956739, “A synthetic lipopeptide targeting top-priority multidrug-resistant Gram-negative pathogens” (Nature Communications, 2022):
Converted amounts (≈) assume the structure as drawn. “And” between values parts separate entries of the source, which are not always exact repeats. Identical values can stand only once. Residues, ends and D or L forms follow the SMILES beside them.

Columns and labels:
[1] = system: K. pneumoniae FADDI-KP032; assay type: cell-based, Klebsiella pneumoniae; settings: FADDI-KP032
Procedure: (§1) MICs were determined in cation-adjusted Mueller–Hinton broth (CaMHB) by the broth micro-dilution method against ATCC strains and clinical isolates. MICs in the presence of Survanta® were determined as described above against P. aeruginosa ATCC 27853. In the 100 μL of fresh CaMHB containing polymyxins, 10% Survanta® (v/v, 2.5 mg/mL phospholipids) was added. MICs in the presence and absence of Survanta® were compared to determine the effect of binding to lung surfactant on the antibacterial activity of polymyxins.

[2] = system: K. pneumoniae FADDI-KP065; assay type: cell-based, Klebsiella pneumoniae; settings: FADDI-KP065
Procedure: as §1

P. aeruginosa ATCC 27853 [3] = assay type: cell-based, Pseudomonas aeruginosa; settings: ATCC 27853
Procedure: as §1

[4] = system: P. aeruginosa FADDI-PA025; assay type: cell-based, Pseudomonas aeruginosa; settings: FADDI-PA025
Procedure: as §1

[5] = system: P. aeruginosa FADDI-PA038; assay type: cell-based, Pseudomonas aeruginosa; settings: FADDI-PA038
Procedure: as §1

A. baumannii FADDI-AB034 = assay type: cell-based, Acinetobacter baumannii; settings: FADDI-AB034
Procedure: as §1

A. baumannii FADDI-AB030 = assay type: cell-based, Acinetobacter baumannii; settings: FADDI-AB030
Procedure: as §1

A. baumannii ATCC 19606 = assay type: cell-based, Acinetobacter baumannii; settings: ATCC 19606
Procedure: as §1

P. aeruginosa ATCC 27853 [6] = test: Neutropenic mouse bloodstream infection model; assay type: in vivo; settings: single IV dose 4 mg/kg; for Log10 CFU/mL blood at 4 h, Mean / Δlog10 CFU/mL blood (mean) / Log10 CFU/mL blood at 4 h, single mouse: 4 h; for Δlog10 CFU/mL blood (mean): treated minus control, mean of replicates; for Δlog10 CFU/mL blood (mean) / Log10 CFU/mL blood at 4 h, single mouse / Delta Log10 CFU/mL blood at 4 h, single mouse: 4 mg/kg; for Delta Log10 CFU/mL blood at 4 h, single mouse: treated mouse minus mean of vehicle mice
Procedure: The experimental methodology for the neutropenic mouse bloodstream infection model was described previously. Briefly, 7-week-old female Swiss mice (22–28 g) were rendered neutropenic by intraperitoneal administration of cyclophosphamide, 4 days (150 mg/kg) and 1 day (100 mg/kg) prior to inoculation. Bloodstream infection was established by intravenous administration of a 50 µL bolus of early log-phase bacterial suspension (4 × 10^8 CFU/mL). Lipopeptide solutions were prepared at 1 mg/mL (free base) in sterile saline. At 2 h after inoculation, mice (n = 3) were injected intravenously with lipopeptide solution at 4 mg/kg (free base) or saline control. At 0 and 4 h after administration, blood was collected, diluted serially in sterile saline, and plated on nutrient agar plates. Agar plates were incubated at 37 °C overnight for bacterial colony counting and the bacterial load in the blood (log10 CFU/mL) in each mouse was calculated. In vivo efficacy was calculated as the difference of the log10 CFU/mL blood values between the treated mice and the saline-treated mice at 4 h post dosing (Δlog10 CFU/mL blood = log10 [treated] CFU/mL blood − log10[control] CFU/mL blood).

Swiss mice, kidney = test: Nephrotoxicity in mice (kidney histopathology); assay type: in vivo, mouse; settings: for Kidney histopathology (SQS Score): 72 mg/kg/d subcutaneously in six divided doses every 2 h, n = 3; for Kidney histopathology, mice with the SQS score: mouse, in vivo
Procedure: The experimental methodology has been previously reported by our group. Briefly, individual lipopeptide solutions were prepared in sterile saline (6 mg/mL). Swiss mice (female, 7-week-old, 22–28 g) were subcutaneously administered at 12 mg/kg in, 6 doses every 2 h to reach a total dose of 72 mg/kg (n = 3). For high-dose nephrotoxicity experiments, mice were intraperitoneally administered at 20 or 25 mg/kg, in 6 doses every 2 h to reach a total dose of 120 mg/kg (n = 6) or 150 mg/kg (n = 3). At 20 h after the last dose, the right kidney from each mouse was collected and placed in 10% buffered (pH 7.4) formalin (Sigma-Aldrich, Castle Hill, NSW, Australia). The kidneys were subjected to histological examination at the Australian Phenomics Network-Histopathology and Organ Pathology (University of Melbourne, Parkville, VIC, Australia), who was blind to the treatment groups.

Compound	MIC K. pneumoniae FADDI-KP032 [1]	MIC K. pneumoniae FADDI-KP065 [2]	MIC P. aeruginosa ATCC 27853 (P. aeruginosa ATCC 27853 [3])	MIC P. aeruginosa FADDI-PA025 [4]	MIC P. aeruginosa FADDI-PA038 [5]	MIC A. baumannii FADDI-AB034 (A. baumannii FADDI-AB034)	MIC A. baumannii FADDI-AB030 (A. baumannii FADDI-AB030)	MIC A. baumannii ATCC 19606 (A. baumannii ATCC 19606)	Log10 CFU/mL blood at 4 h, Mean (P. aeruginosa ATCC 27853 [6])	Δlog10 CFU/mL blood (mean) (P. aeruginosa ATCC 27853 [6])	Log10 CFU/mL blood at 4 h, single mouse (P. aeruginosa ATCC 27853 [6])	Delta Log10 CFU/mL blood at 4 h, single mouse (P. aeruginosa ATCC 27853 [6])	Kidney histopathology (SQS Score) (Swiss mice, kidney)	Kidney histopathology, mice with the SQS score (Swiss mice, kidney)	MIC, No Survanta (P. aeruginosa ATCC 27853 [3])
CCCCCCCC(=O)N[C@@H](CCN)C(=O)N[C@H](C(=O)N[C@@H](CCCN)C(=O)N[C@H]1CCNC(=O)[C@H]([C@@H](C)O)NC(=O)[C@H](CCN)NC(=O)[C@H](CCN)NC(=O)[C@H]([C@@H](C)O)NC(=O)[C@@H](CC(C)C)NC(=O)[C@H](CCN)NC1=O)[C@@H](C)O [Lipopeptide F252] (HELM PEPTIDE1{[CCCCCCCC(=O)[*:2]].[Dab].T.[Orn].[Dab].[Dab].[dL].T.[Dab].[Dab].T}$PEPTIDE1,PEPTIDE1,5:R3-11:R2$$$V2.0)	<0.125 µg/mL	0.5 µg/mL (≈ 0.432 µM)	0.5 µg/mL (≈ 0.432 µM)	>32 µg/mL	2 µg/mL (≈ 1.73 µM)	1 µg/mL (≈ 0.864 µM)	0.5 µg/mL (≈ 0.432 µM)	1 µg/mL (≈ 0.864 µM)	5.46 Log10 CFU/mL blood	−1.98 log10 CFU/mL blood	5.30 Log10 CFU/mL blood and 5.91 Log10 CFU/mL blood and 5.19 Log10 CFU/mL blood	-2.15 Log10 CFU/mL blood and -1.54 Log10 CFU/mL blood and -2.26 Log10 CFU/mL blood	+1 (SQS + 1 = mild damage (overall score, 1 to <15))	2/3	
CCCCCCCC(=O)N[C@@H](CCN)C(=O)N[C@H](C(=O)N[C@@H](CN)C(=O)N[C@H]1CCNC(=O)[C@H]([C@@H](C)O)NC(=O)[C@H](CCN)NC(=O)[C@H](CCN)NC(=O)[C@H](C)NC(=O)[C@@H](CC(C)C)NC(=O)[C@H](CCN)NC1=O)[C@@H](C)O [Lipopeptide F271] (HELM PEPTIDE1{[CCCCCCCC(=O)[*:2]].[Dab].T.[NC[C@H](N[*:1])C(=O)[*:2]].[Dab].[Dab].[dL].A.[Dab].[Dab].T}$PEPTIDE1,PEPTIDE1,5:R3-11:R2$$$V2.0)	<0.125 µg/mL	<0.125 µg/mL	0.5 µg/mL (≈ 0.455 µM)	16 µg/mL (≈ 14.6 µM)	1 µg/mL (≈ 0.91 µM)	0.25 µg/mL (≈ 0.227 µM)	0.25 µg/mL (≈ 0.227 µM)	0.5 µg/mL (≈ 0.455 µM)	5.18 Log10 CFU/mL blood	−2.27 log10 CFU/mL blood	5.01 Log10 CFU/mL blood and 5.37 Log10 CFU/mL blood and 5.15 Log10 CFU/mL blood	-2.43 Log10 CFU/mL blood and -2.08 Log10 CFU/mL blood and -2.30 Log10 CFU/mL blood	0 (SQS 0 = no significant change (overall score, <1))	3/3	
CCCCCCCC(=O)N[C@@H](CCN)C(=O)N[C@H](C(=O)N[C@H](CN)C(=O)N[C@H]1CCNC(=O)[C@H]([C@@H](C)O)NC(=O)[C@H](CCN)NC(=O)[C@H](CCN)NC(=O)[C@H]([C@@H](C)O)NC(=O)[C@@H](CC(C)C)NC(=O)[C@H](CCN)NC1=O)[C@@H](C)O [Lipopeptide F300] (HELM PEPTIDE1{[CCCCCCCC(=O)[*:2]].[Dab].T.[NC[C@@H](N[*:1])C(=O)[*:2]].[Dab].[Dab].[dL].T.[Dab].[Dab].T}$PEPTIDE1,PEPTIDE1,5:R3-11:R2$$$V2.0)	<0.125 µg/mL	<0.125 µg/mL	0.25 µg/mL (≈ 0.221 µM)	4 µg/mL (≈ 3.54 µM)	1 µg/mL (≈ 0.885 µM)	<0.125 µg/mL	<0.125 µg/mL	0.25 µg/mL (≈ 0.221 µM)	5.31 Log10 CFU/mL blood	−1.53 log10 CFU/mL blood	5.76 Log10 CFU/mL blood and 5.85 Log10 CFU/mL blood and 4.64 Log10 CFU/mL blood and 4.99 Log10 CFU/mL blood	-1.08 Log10 CFU/mL blood and -1.00 Log10 CFU/mL blood and -2.20 Log10 CFU/mL blood and -1.85 Log10 CFU/mL blood	+2 (SQS + 2 = mild to moderate damage (overall score, 15 to <30))	3/3	1 µg/mL (≈ 0.885 µM)
